In patent US6339042B1, “Herbicidal N-cyclohexadienyl heteroaryloxyacetamides” (American Cyanamid Co., priority 1999, dated 2002):

Assays:
Conditions in all cases: three weeks after treatment
Amaranthus tuberculatus [1] = assay: Pre-emergence herbicidal evaluation, AMATA; type: in vivo
Text: (§1) The treated pots are then placed on greenhouse benches, watered and cared for in accordance with conventional greenhouse procedures.

Alopecurus myosuroides [2] = assay: Pre-emergence herbicidal evaluation, ALOMY; type: in vivo
Text: as §1

Apera spica venti [3] = assay: Pre-emergence herbicidal evaluation, APESV; type: in vivo
Text: as §1

Echinochloa crus-galli [4] = assay: Pre-emergence herbicidal evaluation, ECHCG; type: in vivo
Text: as §1

Setaria viridis [5] = assay: Pre-emergence herbicidal evaluation, SETVI; type: in vivo
Text: as §1

Lolium perenne [6] = assay: Pre-emergence herbicidal evaluation, LOLPE; type: in vivo
Text: as §1

Triticum aestivum [7] = assay: Pre-emergence herbicidal evaluation, TRZAW; type: in vivo
Text: as §1

Hordeum vulgare [8] = assay: Pre-emergence herbicidal evaluation, HORVW; type: in vivo
Text: as §1

Zea mays [9] = assay: Pre-emergence herbicidal evaluation, ZEAMX; type: in vivo
Text: as §1

Glycine max [10] = assay: Pre-emergence herbicidal evaluation, GLXMA; type: in vivo
Text: as §1

Oryza sativum [11] = assay: Pre-emergence herbicidal evaluation, ORYSA; type: in vivo
Text: as §1

Amaranthus tuberculatus [12] = assay: Post-emergence herbicidal evaluation, AMATA; type: in vivo
Galium aparine = assay: Post-emergence herbicidal evaluation, GALAP
Method: (§2) The compounds of the invention are tested for pre- and post-emergence herbicidal activity.
(§3) Each pot is examined three weeks after treatment and phytotoxicity is assessed according to the rating system set forth below.
(§4) These acetone solutions are diluted with water and the resulting formulations applied at dosage levels equivalent of about 0.4 to 0.1 kg per hectare of test compound per pot. After spraying the plants are placed on greenhouse benches and are cared for in the usual manner, commensurate with conventional greenhouse practices.

Alopecurus myosuroides [13] = assay: Post-emergence herbicidal evaluation, ALOMY
Apera spica venti [14] = assay: Post-emergence herbicidal evaluation, APESV
Method: as §2, §3, §4

Echinochloa crus-galli [15] = assay: Post-emergence herbicidal evaluation, ECHCG
Method: as §2, §3, §4

Setaria viridis [16] = assay: Post-emergence herbicidal evaluation, SETVI
Lolium perenne [17] = assay: Post-emergence herbicidal evaluation, LOLPE
Method: as §3, §4

Triticum aestivum [18] = assay: Post-emergence herbicidal evaluation, TRZAW
Method: as §3, §4

Hordeum vulgare [19] = assay: Post-emergence herbicidal evaluation, HORVW
Zea mays [20] = assay: Post-emergence herbicidal evaluation, ZEAMX
Method: as §3, §4

Glycine max [21] = assay: Post-emergence herbicidal evaluation, GLXMA
Oryza sativum [22] = assay: Post-emergence herbicidal evaluation, ORYSA
Method: as §2, §3, §4

CCc1nnc(OCC(=O)N(C2=CC(C)(C)CC(C)=C2)C(C)C)s1 [Example 11]
5 (5 - Definite injury): phytotoxicity rating APESV (Apera spica venti [3]; 0.400 kg/ha) | phytotoxicity rating APESV (Apera spica venti [3]; 0.800 kg/ha) | phytotoxicity rating LOLPE (Lolium perenne [6]; 0.200 kg/ha) | phytotoxicity rating APESV (Apera spica venti [14]; 0.400 kg/ha) | phytotoxicity rating LOLPE (Lolium perenne [17]; 0.200 kg/ha) | phytotoxicity rating GLXMA (Glycine max [21]; 0.200 kg/ha) | phytotoxicity rating GLXMA (Glycine max [21]; 0.400 kg/ha)
1 (1 - Trace effect): phytotoxicity rating HORVW (Hordeum vulgare [8]; 0.400 kg/ha) | phytotoxicity rating ORYSA (Oryza sativum [11]; 0.200 kg/ha) | phytotoxicity rating ALOMY (Alopecurus myosuroides [13]; 0.100 kg/ha) | phytotoxicity rating TRZAW (Triticum aestivum [18]; 0.400 kg/ha) | phytotoxicity rating HORVW (Hordeum vulgare [19]; 0.400 kg/ha) | phytotoxicity rating ZEAMX (Zea mays [20]; 0.200 kg/ha)
3 (3 - Moderate effect): phytotoxicity rating TRZAW (Triticum aestivum [7]; 0.800 kg/ha) | phytotoxicity rating AMATA (Amaranthus tuberculatus [12]; 0.200 kg/ha) | phytotoxicity rating ECHCG (Echinochloa crus-galli [15]; 0.400 kg/ha) | phytotoxicity rating LOLPE (Lolium perenne [17]; 0.100 kg/ha) | phytotoxicity rating GLXMA (Glycine max [21]; 0.100 kg/ha)
0 (0 - No effect): phytotoxicity rating AMATA (Amaranthus tuberculatus [1]; 0.100 kg/ha) | phytotoxicity rating AMATA (Amaranthus tuberculatus [1]; 0.200 kg/ha) | phytotoxicity rating AMATA (Amaranthus tuberculatus [1]; 0.400 kg/ha) | phytotoxicity rating APESV (Apera spica venti [3]; 0.100 kg/ha) | phytotoxicity rating APESV (Apera spica venti [3]; 0.200 kg/ha) | phytotoxicity rating TRZAW (Triticum aestivum [7]; 0.100 kg/ha) | phytotoxicity rating TRZAW (Triticum aestivum [7]; 0.200 kg/ha) | phytotoxicity rating HORVW (Hordeum vulgare [8]; 0.100 kg/ha) | phytotoxicity rating HORVW (Hordeum vulgare [8]; 0.200 kg/ha) | phytotoxicity rating ZEAMX (Zea mays [9]; 0.100 kg/ha) | phytotoxicity rating ZEAMX (Zea mays [9]; 0.200 kg/ha) | phytotoxicity rating ZEAMX (Zea mays [9]; 0.400 kg/ha) | phytotoxicity rating GLXMA (Glycine max [10]; 0.100 kg/ha) | phytotoxicity rating GLXMA (Glycine max [10]; 0.200 kg/ha) | phytotoxicity rating GLXMA (Glycine max [10]; 0.400 kg/ha) | phytotoxicity rating GLXMA (Glycine max [10]; 0.800 kg/ha) | phytotoxicity rating ORYSA (Oryza sativum [11]; 0.100 kg/ha) | phytotoxicity rating AMATA (Amaranthus tuberculatus [12]; 0.100 kg/ha) | phytotoxicity rating GALAP (Galium aparine; 0.100 kg/ha) | phytotoxicity rating GALAP (Galium aparine; 0.200 kg/ha) | phytotoxicity rating GALAP (Galium aparine; 0.400 kg/ha) | phytotoxicity rating APESV (Apera spica venti [14]; 0.100 kg/ha) | phytotoxicity rating ECHCG (Echinochloa crus-galli [15]; 0.100 kg/ha) | phytotoxicity rating SETVI (Setaria viridis [16]; 0.100 kg/ha) | phytotoxicity rating SETVI (Setaria viridis [16]; 0.200 kg/ha) | phytotoxicity rating SETVI (Setaria viridis [16]; 0.400 kg/ha) | phytotoxicity rating TRZAW (Triticum aestivum [18]; 0.100 kg/ha) | phytotoxicity rating TRZAW (Triticum aestivum [18]; 0.200 kg/ha) | phytotoxicity rating HORVW (Hordeum vulgare [19]; 0.100 kg/ha) | phytotoxicity rating HORVW (Hordeum vulgare [19]; 0.200 kg/ha) | phytotoxicity rating ZEAMX (Zea mays [20]; 0.100 kg/ha) | phytotoxicity rating ORYSA (Oryza sativum [22]; 0.100 kg/ha) | phytotoxicity rating ORYSA (Oryza sativum [22]; 0.200 kg/ha)
8 (8 - Approaching complete kill): phytotoxicity rating ALOMY (Alopecurus myosuroides [2]; 0.200 kg/ha) | phytotoxicity rating ALOMY (Alopecurus myosuroides [2]; 0.400 kg/ha) | phytotoxicity rating SETVI (Setaria viridis [5]; 0.200 kg/ha) | phytotoxicity rating SETVI (Setaria viridis [5]; 0.400 kg/ha) | phytotoxicity rating LOLPE (Lolium perenne [6]; 0.400 kg/ha) | phytotoxicity rating ALOMY (Alopecurus myosuroides [13]; 0.400 kg/ha) | phytotoxicity rating LOLPE (Lolium perenne [17]; 0.400 kg/ha)
9 (9 - Complete kill): phytotoxicity rating ALOMY (Alopecurus myosuroides [2]; 0.800 kg/ha) | phytotoxicity rating ECHCG (Echinochloa crus-galli [4]; 0.400 kg/ha) | phytotoxicity rating ECHCG (Echinochloa crus-galli [4]; 0.800 kg/ha) | phytotoxicity rating SETVI (Setaria viridis [5]; 0.800 kg/ha) | phytotoxicity rating LOLPE (Lolium perenne [6]; 0.800 kg/ha)
4 (4 - Injury): phytotoxicity rating AMATA (Amaranthus tuberculatus [1]; 0.800 kg/ha) | phytotoxicity rating LOLPE (Lolium perenne [6]; 0.100 kg/ha) | phytotoxicity rating HORVW (Hordeum vulgare [8]; 0.800 kg/ha) | phytotoxicity rating ORYSA (Oryza sativum [11]; 0.400 kg/ha) | phytotoxicity rating AMATA (Amaranthus tuberculatus [12]; 0.400 kg/ha) | phytotoxicity rating ZEAMX (Zea mays [20]; 0.400 kg/ha)
7 (7 - Good herbicidal effect): phytotoxicity rating ALOMY (Alopecurus myosuroides [2]; 0.100 kg/ha) | phytotoxicity rating ECHCG (Echinochloa crus-galli [4]; 0.100 kg/ha) | phytotoxicity rating ECHCG (Echinochloa crus-galli [4]; 0.200 kg/ha) | phytotoxicity rating ZEAMX (Zea mays [9]; 0.800 kg/ha) | phytotoxicity rating ALOMY (Alopecurus myosuroides [13]; 0.200 kg/ha) | phytotoxicity rating APESV (Apera spica venti [14]; 0.200 kg/ha)
6 (6 - Herbicidal effect): phytotoxicity rating SETVI (Setaria viridis [5]; 0.100 kg/ha) | phytotoxicity rating ORYSA (Oryza sativum [11]; 0.800 kg/ha)
2 (2 - Slight effect): phytotoxicity rating TRZAW (Triticum aestivum [7]; 0.400 kg/ha) | phytotoxicity rating ECHCG (Echinochloa crus-galli [15]; 0.200 kg/ha) | phytotoxicity rating ORYSA (Oryza sativum [22]; 0.400 kg/ha)
